The target in data set [1] is T1, Apelin receptor (Rattus norvegicus, UniProt Q9JHG3).
T1 sequence (Q9JHG3 whole entry): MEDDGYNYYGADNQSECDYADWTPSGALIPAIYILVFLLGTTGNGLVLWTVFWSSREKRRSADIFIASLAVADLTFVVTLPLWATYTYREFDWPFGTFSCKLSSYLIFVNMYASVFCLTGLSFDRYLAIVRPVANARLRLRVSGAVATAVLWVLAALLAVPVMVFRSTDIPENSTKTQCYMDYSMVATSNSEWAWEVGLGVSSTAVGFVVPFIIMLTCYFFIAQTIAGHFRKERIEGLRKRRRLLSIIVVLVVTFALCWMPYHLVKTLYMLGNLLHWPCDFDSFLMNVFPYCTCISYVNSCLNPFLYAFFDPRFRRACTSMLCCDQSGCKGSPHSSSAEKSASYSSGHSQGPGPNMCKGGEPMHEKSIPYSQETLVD
Nature of the data set: Displacement of [125I]-pyr-1-apelin-13 from EGFP-tagged wild-type rat apelin receptor expressed in CHO cell membranes by gamma counting method. More on the design: species or system Cell membrane. For orientation: Displacement assays read how much labelled ligand stays bound in the presence of the test substance.

The target of data set [2] is T2, Apelin receptor (Homo sapiens, UniProt P35414).
T2 sequence (P35414 whole entry): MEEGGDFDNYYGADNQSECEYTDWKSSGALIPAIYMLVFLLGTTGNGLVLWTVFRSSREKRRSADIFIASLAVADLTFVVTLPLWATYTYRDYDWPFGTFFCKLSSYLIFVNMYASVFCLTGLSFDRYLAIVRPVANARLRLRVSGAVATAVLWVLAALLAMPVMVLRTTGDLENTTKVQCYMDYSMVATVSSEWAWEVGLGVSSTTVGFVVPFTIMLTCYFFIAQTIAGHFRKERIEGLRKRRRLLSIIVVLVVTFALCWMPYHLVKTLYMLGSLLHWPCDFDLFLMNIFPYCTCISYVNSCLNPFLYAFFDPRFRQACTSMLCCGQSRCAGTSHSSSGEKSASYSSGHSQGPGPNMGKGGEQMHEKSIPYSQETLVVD
Briefly: Activation of APJ receptor (unknown origin) expressed in Chem-5 cells assessed as stimulation of Ca2+ mobilization by Calcium 6-GF dye based fluorescence based assay. In kind it is functional, cell-based.

Data set [3] in a line: Half life in human plasma at 400 uM by HPLC analysis. In kind it is ADME, cell-free.
The next data set relates to Mus musculus. Nature of the data set: Cardioprotective activity in C57BL/6 mouse assessed as reduction in mean arterial blood pressure at 1.4 uM/kg, iv measured after 15 mins relative to control. Conditions: 0.25 h. The format is functional.

pEC50, pIC50: −log10 of the molar value. Non-standard residues stand in square brackets, D forms with d. Residues, ends and D or L forms follow the SMILES beside them. *: point of attachment. CH3O(CH2CH2O)7C2H4CO = COCCOCCOCCOCCOCCOCCOCCOCCC(=O)*; Bpa = N[C@@H](Cc1ccc(C(=O)c2ccccc2)cc1)C(=O)O; Phe(4-Br) = N[C@@H](Cc1ccc(Br)cc1)C(=O)O; PEG7 = NCCOCCOCCOCCOCCOCCOCCOCCC(=O)O; Fmoc = O=C(OCC1c2ccccc2-c2ccccc21)*; NMeL = CN[C@@H](CC(C)C)C(=O)O; PEG4 = NCCOCCOCCOCCOCCC(=O)O; PEG3 = NCCOCCOCCOCCC(=O)O; Nle = CCCC[C@H](N)C(=O)O; X1 = COCCOCCOCCOCCC(=O)*; Aib = CC(C)(N)C(=O)O

Usually pIC50 stands for −log10 of the IC50, conventionally taken in molar units. A lower pIC50 goes with a large IC50. A word on the pEC50: it is the EC50 on a negative log10 scale, so that one unit is a factor of ten. One may read the half-life as the time in which the quantity being followed falls by half. Consider `CCCC[C@H](NC(=O)[C@@H]1CCCN1C(=O)CNC(=O)[C@H](CCCCN)NC(=O)[C@H](Cc1c[nH]cn1)NC(=O)[C@H](CO)NC(=O)[C@H](CC(C)C)N(C)C(=O)[C@H](CCCNC(=N)N)NC(=O)[C@@H]1CCCN1C(=O)[C@H](CCCNC(=N)N)NC(=O)[C@H](CCC(N)=O)NC(=O)[C@H](CCCNC(=N)N)NC(=O)[C@H](CCCNC(=N)N)NC(=O)[C@H](Cc1ccccc1)NC(=O)[C@H](CCCCN)NC(=O)CCOCCOCCOCCOCCOCCOCCOCCNC(=O)[C@@H](N)Cc1ccc(C(=O)c2ccccc2)cc1)C(=O)NC(C)(C)C(=O)N[C@@H](Cc1ccc(Br)cc1)C(=O)O` (H-[Bpa][PEG7]KFRRQRPR[NMeL]SHKGP[Nle][Aib][Phe(4-Br)]-OH), for which the pIC50 at Apelin receptor [1] is 8.89. At Apelin receptor [2], the pEC50 is 7.05. The compound also had a half-life at 400 µM in data set [3] of 8.2 h. Also, the Activity with Mus musculus is reported as 43 mmHg.

The compound `CCCC[C@H](NC(=O)[C@@H]1CCCN1C(=O)CNC(=O)[C@H](CCCCN)NC(=O)[C@H](Cc1c[nH]cn1)NC(=O)[C@H](CO)NC(=O)[C@H](CC(C)C)N(C)C(=O)[C@H](CCCNC(=N)N)NC(=O)[C@@H]1CCCN1C(=O)[C@H](CCCNC(=N)N)NC(=O)[C@H](CCC(N)=O)NC(=O)[C@H](CCCNC(=N)N)NC(=O)[C@H](CCCNC(=N)N)NC(=O)[C@H](Cc1ccccc1)NC(=O)[C@H](CCCCN)NC(=O)CCOCCOCCOCCOCCN)C(=O)NC(C)(C)C(=O)N[C@@H](Cc1ccc(Br)cc1)C(=O)O` (H-[PEG4]KFRRQRPR[NMeL]SHKGP[Nle][Aib][Phe(4-Br)]-OH) gave a pIC50 at Apelin receptor [1] of 8.20. At Apelin receptor [2], the pEC50 is 8.11. The compound further had a half-life at 400 µM in data set [3] of 2 h. Moreover, the Activity in the data set with Mus musculus is reported as 24 mmHg.

Turning to `CCCC[C@H](NC(=O)[C@@H]1CCCN1C(=O)CNC(=O)[C@H](CCCCN)NC(=O)[C@H](Cc1c[nH]cn1)NC(=O)[C@H](CO)NC(=O)[C@H](CC(C)C)N(C)C(=O)[C@H](CCCNC(=N)N)NC(=O)[C@@H]1CCCN1C(=O)[C@H](CCCNC(=N)N)NC(=O)[C@H](CCC(N)=O)NC(=O)[C@H](CCCNC(=N)N)NC(=O)[C@H](CCCNC(=N)N)NC(=O)[C@H](Cc1ccccc1)NC(=O)[C@H](CCCCN)NC(=O)CCOCCOCCOCCOC)C(=O)NC(C)(C)C(=O)N[C@@H](Cc1ccc(Br)cc1)C(=O)O` (X1-KFRRQRPR[NMeL]SHKGP[Nle][Aib][Phe(4-Br)]-OH), the pIC50 on Apelin receptor [1] was 8.48. The pEC50 at Apelin receptor [2] was 7.27. This compound also had a half-life at 400 µM in data set [3] of 2.8 h. For the same compound, the Activity with Mus musculus is 32 mmHg.

On to `CCCC[C@H](NC(=O)[C@@H]1CCCN1C(=O)CNC(=O)[C@H](CCCCN)NC(=O)[C@H](Cc1c[nH]cn1)NC(=O)[C@H](CO)NC(=O)[C@H](CC(C)C)N(C)C(=O)[C@H](CCCNC(=N)N)NC(=O)[C@@H]1CCCN1C(=O)[C@H](CCCNC(=N)N)NC(=O)[C@H](CCC(N)=O)NC(=O)[C@H](CCCNC(=N)N)NC(=O)[C@H](CCCNC(=N)N)NC(=O)[C@H](Cc1ccccc1)NC(=O)[C@H](CCCCN)NC(=O)CCOCCOCCOCCOCCOCCOCCOCCOC)C(=O)NC(C)(C)C(=O)N[C@@H](Cc1ccc(Br)cc1)C(=O)O` ({CH3O(CH2CH2O)7C2H4CO}-KFRRQRPR[NMeL]SHKGP[Nle][Aib][Phe(4-Br)]-OH), for which the pIC50 at Apelin receptor [1] is 8.77. For the same compound, the negative logarithm of the EC50 (pEC50) on Apelin receptor [2] was 8.09. In addition, the half-life at 400 µM in data set [3] is 0.7 h. Further, in the data set on Mus musculus, the Activity is reported as 30 mmHg.

For `CCCC[C@H](NC(=O)[C@@H]1CCCN1C(=O)CNC(=O)[C@H](CCCCN)NC(=O)[C@H](Cc1c[nH]cn1)NC(=O)[C@H](CO)NC(=O)[C@H](CC(C)C)N(C)C(=O)[C@H](CCCNC(=N)N)NC(=O)[C@@H]1CCCN1C(=O)[C@H](CCCNC(=N)N)NC(=O)[C@H](CCC(N)=O)NC(=O)[C@H](CCCNC(=N)N)NC(=O)[C@H](CCCNC(=N)N)NC(=O)[C@H](Cc1ccccc1)NC(=O)[C@H](CCCCN)NC(=O)CCOCCOCCOCCNC(=O)OCC1c2ccccc2-c2ccccc21)C(=O)NC(C)(C)C(=O)N[C@@H](Cc1ccc(Br)cc1)C(=O)O` ({Fmoc-PEG3}-KFRRQRPR[NMeL]SHKGP[Nle][Aib][Phe(4-Br)]-OH), the pIC50 on Apelin receptor [1] was 8.60. Besides, the pEC50 on Apelin receptor [2] is 7.77. The half-life at 400 µM in data set [3] was 2 h. Moreover, the Activity in the data set on Mus musculus amounted to 32 mmHg.
